Data reported in patent US20130005588A1, “METHOD FOR DETERMINING SUBSTANCE NON-TOXICITY” (priority 2010, published 2013).
Like-named read-outs stand apart in the source and are kept apart here. Residues, ends and D or L forms follow the SMILES beside them.

Experiments:
[1] = system: rat 3-D primary aggregating brain cell cultures; assay: Gene expression (mRNA of nestin, NF-200, S100β, MBP) by quantitative real-time PCR in aggregating brain cell cultures exposed to potential DNT chemicals; assay type: cell-based
Method: (§1) Generally one batch of Rat primary aggregating brain cell cultures aggregates were prepared every month. […] The endpoints applied to study processes of neurodevelopment include quantitative real-time PCR, Western blot analysis and mass spectrometry based metabolomics.
Aggregate cultures were maintained for 35 days in vitro (DIV). Samples were taken at DIV 1, 7, 14, 21, 28, 35 and mRNA was isolated, purified and quantified by RT-PCR.
The expression of the following genes was quantified; nestin expressed in neural precurser cells, neurofilament-200 (NF-200) expressed in neurons, S100β expressed in astrocytes and myelin basic protein (MBP) expressed in oligodendrocytes.
Aggregating brain cell cultures were exposed to potential DNT chemicals during both early (day in vitro 7-14) and late developmental stages (day in vitro […]). Chemicals were dissolved in water or DMSO depending on their chemical properties. Control cells received the vehicle without the DNT chemical.

[2] = system: primary rat aggregating brain cell cultures; assay type: cell-based
Method: as §1
Cellular extracts (control and treated cultures) were prepared as described. The samples were used to establish an LC-MS method for the analysis of metabolites. […] Significant pertubations in metabolite levels were determined by principal component analysis and metabolites were identified by a Metlin metabolite database search using their retention time and accurate mass. Examples of metabolites that were perturbed by lead chloride and TCE treatment in the neuronal cell model and could be linked to biological pathways are provided in Table 3.

[3] = astrocytic marker, exposure DIV 7-14 or 7-21, real-time PCR
[4] = nestin, NF-200, S100β, MBP, exposure DIV 7-14 or 7-21
[5] = neural precursor marker, exposure DIV 7-14 or 7-21, real-time PCR
[6] = neuronal marker, exposure DIV 7-14 or 7-21, real-time PCR
[7] = oligodendrocyte marker, exposure DIV 7-14 or 7-21, real-time PCR

Row | SMILES | significant effects on quantified gene expression levels (one or several cell type related genes) [1] | The lowest concentration inducing changes in mRNA levels of NF-200 ([1]; rat) | The lowest concentration inducing changes in mRNA levels of S100β ([1]; rat) | The lowest concentration inducing changes in mRNA levels of nestin ([1]; rat) | alteration of metabolites in the aggregate samples [2] | The lowest concentration inducing changes in mRNA levels of MBP ([1]; rat) [µM] | The lowest concentration inducing changes in mRNA levels of S100β [1, 3] | significant effects on quantified gene expression levels (one or several cell type related genes) [1, 4] | The lowest concentration inducing changes in mRNA levels of nestin [1, 5] | The lowest concentration inducing changes in mRNA levels of NF-200 [1, 6] | The lowest concentration inducing changes in mRNA levels of MBP [1, 7] | The lowest concentration inducing changes in mRNA levels of S100β ([1]; astrocytic marker, exposure DIV 7-14 or 7-21, real-time PCR, listed as maneb) | alteration of metabolites in the aggregate samples ([2]; LC-MS, intra-cellular extracts, treatment 7 to 21 DIV, principal component analysis)
1 | ClC=C(Cl)Cl [Trichloroethylene] | significantly affected | 0.1 µM | —^1 | 50 µM | altered hundreds of metabolites | – | – | – | – | – | – | – | –
2 | CCCC(CCC)C(=O)O [Valproic acid] | significantly affected | —^1 | 500 µM | —^1 | – | 100 | – | – | – | – | – | – | –
3 | CCOP(=S)(OCC)Oc1nc(Cl)c(Cl)cc1Cl [Chlorpyrifos] | – | – | – | – | – | – | 10 µM | significantly affected | 0.1 µM | 0.1 µM | 1 µM | – | –
4 | Nc1nnc(-c2cccc(Cl)c2Cl)c(N)n1 [Lamotrigine] | did not induce any significant effects | —^1 | —^1 | —^1 | – | – | – | – | – | – | – | – | –
5 | CNC(=O)Oc1cccc2ccccc12 [Carbaryl] | – | – | – | – | – | – | —^1 | – | 0.1 µM | 0.1 µM | 0.1 µM | – | –
6 | Cl[C@H]1[C@H](Cl)[C@@H](Cl)[C@@H](Cl)[C@H](Cl)[C@H]1Cl [Lindane] | – | – | – | – | – | – | —^1 | significantly affected | 0.1 µM | 0.1 µM | 1 µM | – | –
7 | COC(=O)[C@H](Cc1ccccc1)NC(=O)[C@@H](N)CC(=O)O [Aspartame] (HELM PEPTIDE1{D.F.[CO[*:1]]}$$$$V2.0) | – | – | – | – | – | – | —^1 | did not induce any significant effects | —^1 | —^1 | —^1 | – | –
8 | CC(C)(c1ccc(O)cc1)c1ccc(O)cc1 [Bisphenol A] | – | – | – | – | – | – | —^1 | significantly affected | —^1 | 100 µM | —^1 | – | –
9 | S=C([S-])NCCNC(=S)[S-].[Mn+2] [Maneb] | – | – | – | – | – | – | —^1 | significantly affected | 1 µM | 0.1 µM | 0.1 µM | no observed effects | –
10 | [Cl][Pb][Cl] [Lead Chloride] | – | – | – | – | – | – | 10 µM | significantly affected | 10 µM | 0.1 µM | 0.1 µM | – | altered hundreds of metabolites
11 | [Cl][Cd][Cl] [Cadmium Chloride] | – | – | – | – | – | – | 1 µM | significantly affected | 1 µM | 1 µM | 10 µM | – | –
